In patent publication US20120165304A1, “6,7,8,9-Tetrahydro-5H-1,4,7,10a-tetraaza-cyclohept[f]indene derivatives, pharmaceutical compositions containing these compounds, their use and processes for preparing them” (BOEHRINGER INGELHEIM INTERNATIONAL GMBH, priority 2008, published 2012):

target: human 5-HT2C receptor (Homo sapiens, UniProt P28335, I156V/I160V/N158S); assay: cell-based
Sequence (P28335 33-458 I156V/N158S/I160V limits assumed): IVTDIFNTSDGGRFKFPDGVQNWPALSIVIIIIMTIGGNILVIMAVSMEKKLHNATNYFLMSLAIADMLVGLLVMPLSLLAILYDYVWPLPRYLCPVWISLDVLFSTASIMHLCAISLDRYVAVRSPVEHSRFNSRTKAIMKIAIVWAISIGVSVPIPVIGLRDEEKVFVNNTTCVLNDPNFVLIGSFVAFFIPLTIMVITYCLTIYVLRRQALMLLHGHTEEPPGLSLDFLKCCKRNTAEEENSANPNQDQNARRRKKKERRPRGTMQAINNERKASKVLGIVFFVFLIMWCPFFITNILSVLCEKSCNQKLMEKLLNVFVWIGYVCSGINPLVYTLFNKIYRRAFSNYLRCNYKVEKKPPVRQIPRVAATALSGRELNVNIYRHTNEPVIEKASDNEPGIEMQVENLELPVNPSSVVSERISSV

Compound | EC50
FC(F)(F)c1ccc2c(c1)nc(C1CN(c3c4c(nc5ccnn35)CCNCC4)C1)n2Cc1ccccc1 [Example 34.34] | 2090 nM
CC1(C)CCN(C(=O)C2CN(c3c4c(nc5c(Br)cnn35)CCNCC4)C2)CC1 [Example 31.138] | 71 nM
COc1ccccc1N(C)C(=O)C1CN(c2c3c(nc4ccnn24)CCNCC3)C1 [Example 31.38] | 790 nM
CN1CCc2nc3ccnn3c(N3CC(C(=O)N4CCCN(C)CC4)C3)c2CC1 [Example 36.12] | 73 nM
Fc1cc(F)c2nc(C3CN(c4c5c(nc6ccnn46)CCNCC5)C3)[nH]c2c1 [Example 34.24] | 136 nM
CN1CCc2nc3ccnn3c(N3CC(C(=O)NC4CC5CCC(C4)N5C)C3)c2CC1 (centres unmarked) [Example 36.10] | 374 nM
COc1ccc(OC2CN(c3c4c(nc5ccnn35)CCNCC4)C2)cc1 [Example 1.10] | 96 nM
O=C(C1CN(c2c3c(nc4ccnn24)CCNCC3)C1)N1CCc2ccc(Br)cc2C1 [Example 31.209] | 95 nM
O=C(NCC1CCCCCC1)C1CN(c2c3c(nc4ccnn24)CCNCC3)C1 [Example 37.68] | 39 nM
Fc1ccc(OCC2CN(c3c4c(nc5ccnn35)CCNCC4)C2)cc1 [Example 15, 10-[3-(4-Fluoro-phenoxymethyl)-azetidin-1-yl]-6,7,8,9-tetrahydro-5H-1,4,7,10a-tetraaza-cyclohepta[f]indene] | 43 nM
COc1ccc(C2(CNC(=O)C3CN(c4c5c(nc6ccnn46)CCNCC5)C3)CCCCC2)cc1 [Example 31.185] | 1470 nM
COc1ccc2cc(OC3CN(c4c5c(nc6ccnn46)CCNCC5)C3)ccc2c1 [Example 35.13] | 1360 nM
Fc1ccc2[nH]c(C3CN(c4c5c(nc6ccnn46)CCNCC5)C3)nc2c1 [Example 34.14] | 369 nM
c1cc2nc3c(c(N4CC(OCC5CC5)C4)n2n1)CCNCC3 [Example 20.3] | 469 nM
CN(C)C(=O)[C@@H]1CCN(c2c3c(nc4ccnn24)CCNCC3)C1 [Example 1.62] | 2070 nM
COc1cccc(OC2CN(c3c4c(nc5ccnn35)CCNCC4)C2)c1 [Example 35.47] | 66 nM
O=C(C1CN(c2c3c(nc4ccnn24)CCNCC3)C1)N1CCN(Cc2ccc(F)cc2)CC1 [Example 37.23] | 6 nM
CN1CCN(C(=O)C2CN(c3c4c(nc5ccnn35)CCNCC4)C2)CC1=O [Example 37.100] | 14 nM
CC1(C)CN(C(=O)C2CN(c3c4c(nc5ccnn35)CCNCC4)C2)Cc2ccccc21 [Example 31.177] | 623 nM
Cc1ccc(OC2CN(c3c4c(nc5ccnn35)CCNCC4)C2)c(C)c1 [Example 35.6] | 266 nM
O=C(C1CN(c2c3c(nc4ccnn24)CCNCC3)C1)N1CCCC(F)C1 (centres unmarked) [Example 31.193] | 64 nM
O=C(C1CN(c2c3c(nc4ccnn24)CCNCC3)C1)N1CCC2(CCOC2)CC1 [Example 31.57] | 37 nM
O=C(C1CN(c2c3c(nc4ccnn24)CCNCC3)C1)N1CCc2cccc(C(F)(F)F)c2C1 [Example 31.122] | 33 nM
COc1ccc(OC2CN(c3c4c(nc5ccnn35)CCNCC4)C2)cc1OC [Example 35.49] | 137 nM
OC[C@H]1CCN1c1c2c(nc3ccnn13)CCNCC2 [Example 8.2] | 105 nM
O=C(C1CN(c2c3c(nc4ccnn24)CCNCC3)C1)N1CCCC1c1ccccc1 (centres unmarked) [Example 31.45] | 575 nM

Compound | EC50
O=C(C1CN(c2c3c(nc4ccnn24)CCNCC3)C1)N1CCCCCC1 [Example 31.142] | 186 nM
CCCCN1CCCN(C(=O)C2CN(c3c4c(nc5ccnn35)CCN(C)CC4)C2)CC1 [Example 36.36] | 256 nM
CC1CCN(C(=O)C2CN(c3c4c(nc5ccnn35)CCNCC4)C2)CC1 [Example 31.228] | 42 nM
Cc1cnn2c(N3CC(C(=O)N4CCC(Oc5ccccc5)CC4)C3)c3c(nc12)CCNCC3 [Example 31.244] | 62 nM
CN(Cc1ccc(C(F)(F)F)cc1)C(=O)C1CN(c2c3c(nc4ccnn24)CCNCC3)C1 [Example 31.87] | 36 nM
c1cc2nc3c(c(N4CCCCCC4)n2n1)CCNCC3 [Example 7.5] | 592 nM
CC(=O)N(C)C1CCN(C(=O)C2CN(c3c4c(nc5ccnn35)CCN(C)CC4)C2)CC1 [Example 36.31] | 187 nM
O=C(C1CN(c2c3c(nc4ccnn24)CCNCC3)C1)N1CCN(C2CCCCC2)CC1 [Example 37.38] | 3 nM
COc1ccc(OCC2CN(c3c4c(nc5ccnn35)CCNCC4)C2)cc1 [Example 15.3] | 10 nM
Fc1c(Cl)cccc1OCC1CN(c2c3c(nc4ccnn24)CCNCC3)C1 [Example 15.25] | 212 nM
CO[C@@H]1CCN(C(=O)C2CN(c3c4c(nc5ccnn35)CCN(C)CC4)C2)C1 [Example 36.38] | 86 nM
CC(C)C1CCN(C(=O)C2CN(c3c4c(nc5ccnn35)CCN(C)CC4)C2)CC1 [Example 36.20] | 63 nM
Fc1ccc(C(F)(F)F)cc1OC1CN(c2c3c(nc4ccnn24)CCNCC3)C1 [Example 35.36] | 90 nM
O=C(CC1CN(c2c3c(nc4ccnn24)CCNCC3)C1)N1CCc2ccccc21 [Example 33.1] | 19 nM
Cc1cccc2c1N(C(=O)C1CN(c3c4c(nc5ccnn35)CCNCC4)C1)CC2 [Example 31.174] | 116 nM
O=C(C1CN(c2c3c(nc4ccnn24)CCNCC3)C1)N1CCC(C(F)(F)F)CC1 [Example 31.83] | 8 nM
CCc1cnn2c(N3CC(C(=O)N(C)C)C3)c3c(nc12)CCNCC3 [Example 26, 1-(3-Ethyl-6,7,8,9-tetrahydro-5H-1,4,7,10a-tetraaza-cyclohepta[f]inden-10-yl)-azetidine-3-carboxylic acid dimethylamide] | 10 nM
CO[C@H]1CCN(C(=O)C2CN(c3c4c(nc5ccnn35)CCN(C)CC4)C2)C1 [Example 36.41] | 337 nM
CCOc1ccc(OC2CN(c3c4c(nc5ccnn35)CCNCC4)C2)cc1 [Example 35.53] | 324 nM
Cn1c(C2CN(c3c4c(nc5ccnn35)CCNCC4)C2)nc2cc(Cl)ccc21 [Example 34.3] | 418 nM
Brc1cnn2c(N3CC(Oc4ccccc4)C3)c3c(nc12)CCNCC3 [Example 2.1] | 7 nM
O=C(C1CN(c2c3c(nc4ccnn24)CCNCC3)C1)N1C2CCCCC1CCC2 [Example 31.158] | 1230 nM
Cc1cccc(CN(C)C(=O)C2CN(c3c4c(nc5ccnn35)CCNCC4)C2)n1 [Example 31.208] | 62 nM
O=C(C1CN(c2c3c(nc4ccnn24)CCNCC3)C1)N1CCC2(CCCC2)C1 [Example 31.123] | 9 nM
FC(F)(F)c1ccc(OC2CN(c3c4c(nc5ccnn35)CCNCC4)C2)nc1 [Example 20.8] | 939 nM
CN(C(=O)C1CCCN(c2c3c(nc4ccnn24)CCNCC3)C1)c1ccccc1 (centres unmarked) [Example 1.60] | 1590 nM

Compound | EC50
Cc1cnn2c(N3CC(C(=O)N4CCc5c(cccc5C(F)(F)F)C4)C3)c3c(nc12)CCNCC3 [Example 31.239] | 80 nM
O=C(C1CN(c2c3c(nc4ccnn24)CCNCC3)C1)N1CCN(C2CCCC2)CC1 [Example 37.11] | 2 nM
O=C(C1CN(c2c3c(nc4ccnn24)CCNCC3)C1)N1CC=CC1 [Example 31.183] | 308 nM
CC(C)N(C)C(=O)C1CN(c2c3c(nc4ccnn24)CCNCC3)C1 [Example 31.6] | 5940 nM
O=C(C1CN(c2c3c(nc4ccnn24)CCNCC3)C1)N1CCC(c2ccncc2)CC1 [Example 31.182] | 9 nM
O=C(C1CN(c2c3c(nc4ccnn24)CCNCC3)C1)N1CCCCC1c1cccnc1 (centres unmarked) [Example 31.187] | 1010 nM
COc1ccc(OC2CN(c3c4c(nc5ccnn35)CCNCC4)C2)c(Br)c1 [Example 35.30] | 40 nM
CN(C(=O)C1CN(c2c3c(nc4ccnn24)CCNCC3)C1)C1CC1 [Example 31.10] | 1670 nM
CN1CCc2nc3ccnn3c(N3CC(C(=O)N4CCC5(CC5)C4)C3)c2CC1 [Example 36.37] | 61 nM
CC(C)=CCN1CCC(NC(=O)C2CN(c3c4c(nc5ccnn35)CCNCC4)C2)CC1 [Example 43, 1-(6,7,8,9-Tetrahydro-5H-1,4,7,10a-tetraaza-cyclohept[f]inden-10-yl)-azetidine-3-carboxylic acid [1-(3-methyl-but-2-enyl)-piperidin-4-yl]-amide] | 8 nM
O=C(C1CN(c2c3c(nc4ccnn24)CCNCC3)C1)N1CC[C@H](Oc2ccccc2)C1 [Example 31.212] | 34 nM
O=C(C1CN(c2c3c(nc4ccnn24)CCNCC3)C1)N1CCC(N2CCOCC2)CC1 [Example 37.19] | 5 nM
O=C(C1CN(c2c3c(nc4c(Br)cnn24)CCNCC3)C1)N1CCC2(CCC2)C1 [Example 31.133] | 60 nM
CC(=O)NC1CCN(C(=O)C2CN(c3c4c(nc5ccnn35)CCN(C)CC4)C2)CC1 [Example 36.28] | 380 nM
CC1(C)CCN(C(=O)C2CN(c3c4c(nc5c(Br)cnn35)CCNCC4)C2)C1 [Example 31.135] | 46 nM
FC(F)(F)c1ccnc(OC2CN(c3c4c(nc5ccnn35)CCNCC4)C2)c1 [Example 20.9] | 84 nM
CN1CCc2nc3ccnn3c(N3CC(C(=O)N4CCN(C(=O)C5CC5)CC4)C3)c2CC1 [Example 36.43] | 264 nM
CN1CCc2nc3ccnn3c(N3CC(C(=O)N4CCN(C)C(=O)C4)C3)c2CC1 [Example 36.19] | 257 nM
COc1cc(Cl)ccc1OCC1CN(c2c3c(nc4ccnn24)CCNCC3)C1 [Example 15.26] | 163 nM
C#CC1CCN(C(=O)C2CN(c3c4c(nc5ccnn35)CCNCC4)C2)C1 (centres unmarked) [Example 38, (3-Ethynyl-pyrrolidin-1-yl)-[1-(6,7,8,9-tetrahydro-5H-1,4,7,10a-tetraaza-cyclohepta[f]inden-10-yl)-azetidin-3-yl]-methanone] | 6 nM
CC(C)C(NC(=O)C1CN(c2c3c(nc4ccnn24)CCNCC3)C1)C(F)(F)F (centres unmarked) [Example 37.104] | 106 nM
CC(C)c1ccccc1OC1CCN(C(=O)C2CN(c3c4c(nc5ccnn35)CCNCC4)C2)CC1 [Example 31.219] | 124 nM
CN1CCc2nc3ccnn3c(N3CC(C(=O)N4CCC(F)CC4)C3)c2CC1 [Example 36.29] | 279 nM
CC1CCCC(NC(=O)C2CN(c3c4c(nc5ccnn35)CCNCC4)C2)C1 (centres unmarked) [Example 37.70] | 69 nM
CCc1cnn2c(N3CC(Oc4ccc(OC)cc4)C3)c3c(nc12)CCNCC3 [Example 25.1] | 77 nM
